Reference: ChEMBL document CHEMBL3885861, “Open TG-GATES”

Species: Rattus norvegicus
Assay: Open TG-GATES - Regimen: Single
Format: toxicity, organism-based, Sprague-Dawley
Parameters: regimen Single, gender Male, age 6 weeks
Settings: in vivo, po, route gavage; for APTT / Bas / Eos / Fbg / Hb / Ht / Lym / MCH / MCHC / MCV / Mono / Neu / PT / Plat / RBC / Ret / WBC: tissue Blood; for KIDNEY_L / KIDNEY_R / KIDNEY_TOTAL: tissue Kidney; for LIVER: tissue Liver; for ALP / ALT / AST / BUN / CRE / Ca / Cl / DBIL / GLC / IP / K / LDH / Na / PL / RALB / TBIL / TC / TG / TP / gamma-GTP: tissue Plasma
[1] = 300 mg/kg, 3 h, dose level Middle
[2] = 300 mg/kg, 6 h, dose level Middle
[3] = 300 mg/kg, 9 h, dose level Middle
[4] = 300 mg/kg, 24 h, dose level Middle
[5] = 1000 mg/kg, 3 h, dose level High
[6] = 1000 mg/kg, 6 h, dose level High
[7] = 1000 mg/kg, 9 h, dose level High
[8] = 1000 mg/kg, 24 h, dose level High

COC(=O)C1=C(C)NC(C)=C(C(=O)OC)C1c1ccccc1[N+](=O)[O-] [NIFEDIPINE]
APTT [1]: 16.6 s
Bas [1]: 0.2%
Eos [1]: 0.6%
Fbg [1]: 299.2 mg/dL
Hb [1]: 12.8 g/dL
Ht [1]: 39.1%
Lym [1]: 75.2%
MCH [1]: 21 pg
MCHC [1]: 32.9%
MCV [1]: 63.8 fL
Mono [1]: 3.8%
Neu [1]: 19.8%
PT [1]: 15.1 s
Plat [1]: 126.5 x10_4/uL
RBC [1]: 613 x10_4/ul
Ret [1]: 9.4%
WBC [1]: 113.9 x10_2/uL
KIDNEY_L [1]: 0.9 g
KIDNEY_R [1]: 0.9 g
KIDNEY_TOTAL [1]: 1.8 g
LIVER [1]: 8.1 g
ALP [1]: 1571 IU/L
ALT [1]: 46.2 IU/L
AST [1]: 74.8 IU/L
BUN [1]: 27.6 mg/dL
CRE [1]: 0.3 mg/dL
Ca [1]: 11.6 mg/dL
Cl [1]: 96.8 meq/L
DBIL [1]: 0.01 mg/dL
GLC [1]: 263.6 mg/dL
IP [1]: 9.5 mg/dL
K [1]: 4.7 meq/L
LDH [1]: 85 IU/L
Na [1]: 134.6 meq/L
PL [1]: 135.4 mg/dL
RALB [1]: 2.6 g/dL
TBIL [1]: 0.034 mg/dL
TC [1]: 84.2 mg/dL
TG [1]: 33.6 mg/dL
TP [1]: 5.3 g/dL
gamma-GTP [1]: 1 IU/L
TERMINAL_BW [2]: 205.3 g
APTT [2]: 16.3 s
Bas [2]: 0%
Eos [2]: 0.6%
Fbg [2]: 293.2 mg/dL
Hb [2]: 13.1 g/dL
Ht [2]: 40%
Lym [2]: 75%
MCH [2]: 20.7 pg
MCHC [2]: 32.6%
MCV [2]: 63.5 fL
Mono [2]: 3.8%
Neu [2]: 19.8%
PT [2]: 14.9 s
Plat [2]: 123.8 x10_4/uL
RBC [2]: 632 x10_4/ul
Ret [2]: 10%
WBC [2]: 101.9 x10_2/uL
KIDNEY_L [2]: 0.9 g
KIDNEY_R [2]: 0.9 g
KIDNEY_TOTAL [2]: 1.8 g
LIVER [2]: 7.9 g
ALP [2]: 1503.6 IU/L
ALT [2]: 51.2 IU/L
AST [2]: 78.8 IU/L
BUN [2]: 32.2 mg/dL
CRE [2]: 0.2 mg/dL
Ca [2]: 11.3 mg/dL
Cl [2]: 97.6 meq/L
DBIL [2]: 0.006 mg/dL
GLC [2]: 221.4 mg/dL
IP [2]: 10.7 mg/dL
K [2]: 5.1 meq/L
LDH [2]: 78.8 IU/L
Na [2]: 136.6 meq/L
PL [2]: 150.4 mg/dL
RALB [2]: 2.6 g/dL
TBIL [2]: 0.042 mg/dL
TC [2]: 90.6 mg/dL
TG [2]: 19.4 mg/dL
TP [2]: 5.5 g/dL
gamma-GTP [2]: 1.2 IU/L
TERMINAL_BW [3]: 206.1 g
APTT [3]: 17.3 s
Bas [3]: 0%
Eos [3]: 0.6%
Fbg [3]: 288 mg/dL
Hb [3]: 13.1 g/dL
Ht [3]: 39.7%
Lym [3]: 78.2%
MCH [3]: 21 pg
MCHC [3]: 33%
MCV [3]: 63.7 fL
Mono [3]: 3.6%
Neu [3]: 16.4%
PT [3]: 14.6 s
Plat [3]: 124.2 x10_4/uL
RBC [3]: 623 x10_4/ul
Ret [3]: 9.8%
WBC [3]: 94.7 x10_2/uL
KIDNEY_L [3]: 0.9 g
KIDNEY_R [3]: 0.9 g
KIDNEY_TOTAL [3]: 1.8 g
LIVER [3]: 7.3 g
ALP [3]: 1317.2 IU/L
ALT [3]: 51.2 IU/L
AST [3]: 76.6 IU/L
BUN [3]: 26.8 mg/dL
CRE [3]: 0.2 mg/dL
Ca [3]: 10.9 mg/dL
Cl [3]: 100.8 meq/L
DBIL [3]: 0.01 mg/dL
GLC [3]: 193.4 mg/dL
IP [3]: 11.1 mg/dL
K [3]: 5 meq/L
LDH [3]: 72.4 IU/L
Na [3]: 137.4 meq/L
PL [3]: 156.4 mg/dL
RALB [3]: 2.5 g/dL
TBIL [3]: 0.046 mg/dL
TC [3]: 91 mg/dL
TG [3]: 28.2 mg/dL
TP [3]: 5.4 g/dL
gamma-GTP [3]: 1 IU/L
TERMINAL_BW [4]: 198.5 g
APTT [4]: 16.6 s
Bas [4]: 0%
Eos [4]: 1%
Fbg [4]: 298.6 mg/dL
Hb [4]: 13.1 g/dL
Ht [4]: 40%
Lym [4]: 67%
MCH [4]: 20.4 pg
MCHC [4]: 32.7%
MCV [4]: 62.2 fL
Mono [4]: 3.6%
Neu [4]: 27%
PT [4]: 14.1 s
Plat [4]: 128.1 x10_4/uL
RBC [4]: 643.8 x10_4/ul
Ret [4]: 9%
WBC [4]: 95.9 x10_2/uL
KIDNEY_L [4]: 0.9 g
KIDNEY_R [4]: 0.9 g
KIDNEY_TOTAL [4]: 1.7 g
LIVER [4]: 7.8 g
ALP [4]: 1579.6 IU/L
ALT [4]: 43.8 IU/L
AST [4]: 68.4 IU/L
BUN [4]: 12 mg/dL
CRE [4]: 0.2 mg/dL
Ca [4]: 10.6 mg/dL
Cl [4]: 107.4 meq/L
DBIL [4]: 0.012 mg/dL
GLC [4]: 160.4 mg/dL
IP [4]: 8.3 mg/dL
K [4]: 3.9 meq/L
LDH [4]: 73.8 IU/L
Na [4]: 145 meq/L
PL [4]: 133.6 mg/dL
RALB [4]: 2.8 g/dL
TBIL [4]: 0.042 mg/dL
TC [4]: 77.8 mg/dL
TG [4]: 41.2 mg/dL
TP [4]: 5.8 g/dL
gamma-GTP [4]: 0.8 IU/L
TERMINAL_BW [5]: 207.9 g
APTT [5]: 16.6 s
Bas [5]: 0%
Eos [5]: 1%
Fbg [5]: 285.2 mg/dL
Hb [5]: 13 g/dL
Ht [5]: 39.9%
Lym [5]: 69.8%
MCH [5]: 20.8 pg
MCHC [5]: 32.6%
MCV [5]: 63.8 fL
Mono [5]: 4.6%
Neu [5]: 24.2%
PT [5]: 14.9 s
Plat [5]: 122.2 x10_4/uL
RBC [5]: 626 x10_4/ul
Ret [5]: 9.7%
WBC [5]: 108.1 x10_2/uL
KIDNEY_L [5]: 0.9 g
KIDNEY_R [5]: 0.9 g
KIDNEY_TOTAL [5]: 1.9 g
LIVER [5]: 8.4 g
ALP [5]: 1381.2 IU/L
ALT [5]: 51 IU/L
AST [5]: 74.8 IU/L
BUN [5]: 26.2 mg/dL
CRE [5]: 0.2 mg/dL
Ca [5]: 11.8 mg/dL
Cl [5]: 97.2 meq/L
DBIL [5]: 0.008 mg/dL
GLC [5]: 260.8 mg/dL
IP [5]: 9.2 mg/dL
K [5]: 5 meq/L
LDH [5]: 99.4 IU/L
Na [5]: 134.8 meq/L
PL [5]: 141.4 mg/dL
RALB [5]: 2.5 g/dL
TBIL [5]: 0.036 mg/dL
TC [5]: 81.6 mg/dL
TG [5]: 46.4 mg/dL
TP [5]: 5.2 g/dL
gamma-GTP [5]: 1.6 IU/L
TERMINAL_BW [6]: 205.1 g
APTT [6]: 16.5 s
Bas [6]: 0.2%
Eos [6]: 0.4%
Fbg [6]: 282.6 mg/dL
Hb [6]: 13 g/dL
Ht [6]: 39.6%
Lym [6]: 77%
MCH [6]: 20.6 pg
MCHC [6]: 32.8%
MCV [6]: 62.7 fL
Mono [6]: 3.6%
Neu [6]: 18%
PT [6]: 14.9 s
Plat [6]: 123.3 x10_4/uL
RBC [6]: 632.4 x10_4/ul
Ret [6]: 9.2%
WBC [6]: 92.1 x10_2/uL
KIDNEY_L [6]: 0.9 g
KIDNEY_R [6]: 0.9 g
KIDNEY_TOTAL [6]: 1.9 g
LIVER [6]: 7.3 g
ALP [6]: 1242.8 IU/L
ALT [6]: 50.6 IU/L
AST [6]: 83 IU/L
BUN [6]: 40.2 mg/dL
CRE [6]: 0.2 mg/dL
Ca [6]: 11 mg/dL
Cl [6]: 97.2 meq/L
DBIL [6]: 0.008 mg/dL
GLC [6]: 229.6 mg/dL
IP [6]: 11 mg/dL
K [6]: 5 meq/L
LDH [6]: 81 IU/L
Na [6]: 136.4 meq/L
PL [6]: 148.2 mg/dL
RALB [6]: 2.6 g/dL
TBIL [6]: 0.052 mg/dL
TC [6]: 90.2 mg/dL
TG [6]: 16.4 mg/dL
TP [6]: 5.4 g/dL
gamma-GTP [6]: 1 IU/L
TERMINAL_BW [7]: 206.6 g
APTT [7]: 16.7 s
Bas [7]: 0.4%
Eos [7]: 0.4%
Fbg [7]: 287 mg/dL
Hb [7]: 13.2 g/dL
Ht [7]: 39.8%
Lym [7]: 74%
MCH [7]: 20.8 pg
MCHC [7]: 33.3%
MCV [7]: 62.5 fL
Mono [7]: 4.8%
Neu [7]: 19.2%
PT [7]: 14.6 s
Plat [7]: 123.6 x10_4/uL
RBC [7]: 637 x10_4/ul
Ret [7]: 9.7%
WBC [7]: 96.3 x10_2/uL
KIDNEY_L [7]: 0.9 g
KIDNEY_R [7]: 0.9 g
KIDNEY_TOTAL [7]: 1.7 g
LIVER [7]: 7.1 g
ALP [7]: 1341 IU/L
AST [7]: 75.2 IU/L
BUN [7]: 41.8 mg/dL
CRE [7]: 0.2 mg/dL
Ca [7]: 10.8 mg/dL
Cl [7]: 96.4 meq/L
DBIL [7]: 0.008 mg/dL
GLC [7]: 217.4 mg/dL
IP [7]: 11.9 mg/dL
K [7]: 5.3 meq/L
LDH [7]: 85 IU/L
Na [7]: 134.6 meq/L
PL [7]: 152.4 mg/dL
RALB [7]: 2.6 g/dL
TBIL [7]: 0.052 mg/dL
TC [7]: 90.8 mg/dL
TG [7]: 22.2 mg/dL
TP [7]: 5.5 g/dL
gamma-GTP [7]: 1.4 IU/L
TERMINAL_BW [8]: 197.1 g
APTT [8]: 17.4 s
Bas [8]: 0.2%
Eos [8]: 0.8%
Fbg [8]: 374 mg/dL
Hb [8]: 13.1 g/dL
Ht [8]: 39.6%
Lym [8]: 72.8%
MCH [8]: 20.9 pg
MCHC [8]: 33.1%
MCV [8]: 63.3 fL
Mono [8]: 3.6%
Neu [8]: 22%
PT [8]: 13.7 s
Plat [8]: 142.3 x10_4/uL
RBC [8]: 625.8 x10_4/ul
Ret [8]: 9.7%
WBC [8]: 99.5 x10_2/uL
KIDNEY_L [8]: 0.8 g
KIDNEY_R [8]: 0.9 g
KIDNEY_TOTAL [8]: 1.7 g
LIVER [8]: 6.9 g
ALP [8]: 1549.8 IU/L
ALT [8]: 40.6 IU/L
AST [8]: 67.8 IU/L
BUN [8]: 10.8 mg/dL
CRE [8]: 0.2 mg/dL
Ca [8]: 10.4 mg/dL
Cl [8]: 106 meq/L
DBIL [8]: 0.012 mg/dL
GLC [8]: 167 mg/dL
IP [8]: 8.6 mg/dL
K [8]: 3.8 meq/L
LDH [8]: 78.2 IU/L
Na [8]: 143 meq/L
PL [8]: 126.4 mg/dL
RALB [8]: 2.9 g/dL
TBIL [8]: 0.054 mg/dL
TC [8]: 78 mg/dL
TG [8]: 27 mg/dL
TP [8]: 6.1 g/dL
gamma-GTP [8]: 1 IU/L
